Measured values from patent publication US20260167659A1, “STING AGONISTS” (LIGACHEM BIOSCIENCES INC., priority 2022, published 2026).

Columns and labels:
[1] = Plasma pharmacokinetics in naive Balb/C mouse, LC-MS/MS; assay type: in vivo; details: 1.5 mg/kg single IV; for AUC∞, norm / Cmax, norm: n = 3, dose-normalised; for AUC(0-inf) / AUC(0-t) / C0 / Cmax / clearance / half-life / Vd: female; for AUC(0-inf) / AUC(0-t) / C0 / Cmax: n = 3, plasma; for clearance / half-life / Vd: plasma; for clearance / half-life: n = 3; for Vd: n = 3, read-out: VSS
Protocol: For in vivo evaluation of STING agonist compounds described herein in naïve Balb/C mouse, single doses of STING agonist compounds were given at 1.5 mg/kg intravenously into female BALB/c mice (Orientbio, South Korea) at 6-8 weeks of age. Pharmacokinetics were studied following injection of the STING agonist compounds into Balb/C mice. Plasma samples were taken at various time points and stored frozen for analysis. The plasma concentrations of the STING agonist compounds at the indicated time points were measured using a LC-MS/MS analysis method.
Briefly, 250 μL of acetonitrile (ACN) solution was added in both 50 μL of sample and 50 μL of plasma containing 10 nM Dextromethorphan (internal standard), and the solutions were mixed vigorously using a vortex mixer for 5 minutes. The samples were then spun down at 14,000 rpm, 4° C. for 5 minutes. 100 μL of supernatants were combined with 100 μL of mobile phase A (0.1% formic acid in water with 5% ACN) and mixed thoroughly. The samples were measured for the STING agonist compounds using a LC-MS/MS (Nexera LC40 (SHIMADZU) and QTRAP4500 (SCIEX)).

[2] = Normal cell cytotoxicity in PBMCs, CellTiter-Glo; assay type: cell-based; details: human, read-out: In vitro cell cytotoxicity in PBMCs CC50
Protocol: PBMCs were also purchased from […]™ (#700025.2). The cells (8.0×10^4 cells per well) were seeded in a flat-bottomed 96-well plate in RPMI 1640 medium (Gibco, #22400097) with 10% heat-inactivated FBS and 1× Antibiotic-Antimycotic (Gibco, #15240062) and rested for 24 hours at 37° C. […] After 72 hours, the cell viability was measured using CellTiter-Glo Luminescent Cell Viability Assay (Promega, #G7573) according to the manufacture's instruction. The signal was detected using an EnVision Xcite multilabel reader and data were analyzed using GraphPad Prism 8 software.
To verify the effect of the STING agonist compounds in normal cell cytotoxicity, the PBMCs were treated with the STING agonist compounds for 3 days and measured the percentage of cell death.

[3] = Normal cell cytotoxicity in CD34+ HSC, CellTiter-Glo; assay type: cell-based; details: human, CD34+ hematopoietic stem cells (HSCs), read-out: In vitro cell cytotoxicity in CD34+ HSC CC50
Protocol: The CD34^+ hematopoietic stem cells (HSCs) were purchased from […]™ (#70002.3). The cells (2×10^4 cells per well) were cultured in StemSpan™ SFEM II medium supplemented with StemSpan™ CD34+ Expansion Supplement (#02691) in a 6-well plate at 37° C. for 7 days. On day 3 or 4, an equal volume of fresh complete medium was added into the cell culture. On day 7, the cells (4×10^4 cells per well) were seeded in a 96-well white plate and rested for 24 hours in the same condition.
After 72 hours, the cell viability was measured using CellTiter-Glo Luminescent Cell Viability Assay (Promega, #G7573) according to the manufacture's instruction. The signal was detected using an EnVision Xcite multilabel reader and data were analyzed using GraphPad Prism 8 software.

hSTING-WT (R232) = biological target: T1, hSTING-WT (R232) (Homo sapiens, UniProt Q86WV6, H232R); test: STING activation, THP1-Dual IRF3 reporter assay, hSTING-R232 cells; assay type: cell-based; details: IRF3 luciferase reporter, 24 hours, read-out: STING activity using hSTING-R232 cells EC50
T1 construct: host or cells: THP1-Dual cells (human monocytes) with knocked-in hSTING R232
T1 sequence (Q86WV6 whole entry H232R): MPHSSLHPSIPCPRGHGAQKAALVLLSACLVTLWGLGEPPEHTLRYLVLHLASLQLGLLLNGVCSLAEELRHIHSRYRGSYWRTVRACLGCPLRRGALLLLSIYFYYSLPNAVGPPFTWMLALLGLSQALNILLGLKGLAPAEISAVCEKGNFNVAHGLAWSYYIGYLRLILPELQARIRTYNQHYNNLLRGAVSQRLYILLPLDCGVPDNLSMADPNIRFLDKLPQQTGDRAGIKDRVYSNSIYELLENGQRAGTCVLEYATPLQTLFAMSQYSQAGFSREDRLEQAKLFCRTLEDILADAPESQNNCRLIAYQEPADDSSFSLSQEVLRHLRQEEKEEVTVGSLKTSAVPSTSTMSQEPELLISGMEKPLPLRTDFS
Protocol: (§1) To assess potency of STING agonist compounds described herein, THP1-Dual™ Cells (NF—KB-SEAP and IRF-Lucia luciferase reporter monocytes, InvivoGen) were used. The reporter cells were knocked-in either of hSTING-WT (R232, #thpd-r232), HAQ variant (#thpd-nfis), or H232 variant (#thpd-h232). All cells were cultured at 37° C. in a humidified incubator at 5% CO2 and maintained in RPMI 1640 medium (Gibco, #22400097) supplemented with 10% heat-inactivated FBS and 1×Pen-Strep (Gibco, #15140122). To measure STING agonist-mediated IRF3 activity, the cells (9.0×10^4 cells per well) were seeded in a flat-bottomed 96-well plate. The next day, the cells were treated with compounds in a serial dilution for 24 hours. Subsequently, 20 μL of the cell culture supernatant and 50 μL of the QUANTI-Luc™ reagent (InvivoGen, #rep-qlc) were mixed in a 96-well white plate and then, luciferase activity was measured using an EnVision Xcite multilabel reader. The data were analyzed using Prism8 software (4-parameter).
(§2) The potency of STING agonist compounds was evaluated by the activation of Type I Interferon pathway using THP-1 IRF3 reporter assay.

hSTING HAQ variant = biological target: T2, hSTING HAQ variant (Homo sapiens, UniProt Q86WV6, G230A/H232R/R293Q/R71H); test: STING activation, THP1-Dual IRF3 reporter assay, hSTING-HAQ cells; assay type: cell-based; details: IRF3 luciferase reporter, 24 hours, read-out: STING activity using hSTING-HAQ cells, HAQ EC50
T2 construct: host or cells: THP1-Dual cells (human monocytes)
T2 sequence (Q86WV6 whole entry R71H/G230A/H232R/R293Q): as the sequence (Q86WV6 whole entry H232R) above, with R71H, G230A, R293Q counted along it
Protocol: as §1, §2

hSTING H232 variant = biological target: T3, hSTING H232 variant (Homo sapiens, UniProt Q86WV6); test: STING activation, THP1-Dual IRF3 reporter assay, hSTING-H232 cells; assay type: cell-based; details: IRF3 luciferase reporter, 24 hours, read-out: STING activity using hSTING-H232 cells, H232 EC50
T3 construct: host or cells: THP1-Dual cells (human monocytes) with knocked-in hSTING H232
Protocol: as §1, §2

human STING = biological target: T4, human STING (Homo sapiens, UniProt Q86WV6, H232R); test: Direct STING binding, HUMAN STING WT BINDING KIT (Cisbio); details: direct binding to human STING WT protein in vitro; read-out: Binding potency EC50
T4 construct: purchased Cisbio 64BDSTGPEG
T4 sequence (Q86WV6 whole entry H232R): as the sequence (Q86WV6 whole entry H232R) above
Source text: Additionally, for analysis of direct binding potency of STING agonist compounds described herein to human STING, HUMAN STING WT BINDING KIT (Cisbio, #64BDSTGPEG) was used according to the manufacture's instruction.

## CCn1nc(C)cc1C(=O)Nc1nc2cc(C(N)=O)cc(OC)c2n1C/C=C/Cn1c(NC(=O)c2cc(C)nn2CC)nc2cc(C(N)=O)cc(OCCCN3CCOCC3)c21 [Comparative #1, reference compound]
[1]
  AUC∞, norm: 0.66 ± 0.07 kg·h/L
  Cmax, norm: 1.94 ± 0.30 kg/L
  AUC(0-inf): 990 ± 100 ng·h/mL
  AUC(0-t): 980 ± 100 ng·h/mL
  C0: 4630 ± 860 ng/mL
  Cmax: 2910 ± 450 ng/mL
  clearance: 25.5 mL/min/kg
  half-life: 54.6 ± 2.4 min
  Vd: 0.7 ± 0.15 L/kg
[2]
  CC50 at 72 h: 3.34 nM
[3]
  CC50 at 72 h: 2.1 nM

## CCc1nc(C)oc1C(=O)Nc1nc2cc(C(N)=O)cnc2n1C/C=C/Cn1c(NC(=O)c2oc(C)nc2CC)nc2cc(C(N)=O)cc(OCCCO)c21 [Comparative #2, reference compound]
hSTING-WT (R232)
  EC50: 213 nM
hSTING HAQ variant
  EC50: 213 nM
hSTING H232 variant
  EC50: 36.6 nM
Human STING
  EC50: 0.13 nM
[1]
  AUC∞, norm: 0.05 ± 0.01 kg·h/L
  Cmax, norm: 0.16 ± 0.02 kg/L
  AUC(0-inf): 80 ± 10 ng·h/mL
  AUC(0-t): 70 ± 10 ng·h/mL
  C0: 380 ± 50 ng/mL
  Cmax: 240 ± 30 ng/mL
  clearance: 328 mL/min/kg
  half-life: 12 ± 1.8 min
  Vd: 5.1 ± 1.01 L/kg
[2]
  CC50 at 72 h: 6.28 nM

## CCn1nc(C)cc1C(=O)Nc1nc2cc(C(N)=O)cc(OC)c2n1C/C=C/Cn1c(NC(=O)c2cc(C)nn2CC)nc2cc(C(N)=O)cc(OC/C=C/Cn3cc(NC(=O)OCc4ccc(O[C@@H]5O[C@H](C(=O)O)[C@@H](O)[C@H](O)[C@H]5O)c(C(=O)NCCC(=O)O)c4)cn3)c21 [Compound 281]
hSTING-WT (R232)
  EC50: 39.2 nM
hSTING HAQ variant
  EC50: 108 nM
hSTING H232 variant
  EC50: 96.7 nM
[1]
  AUC∞, norm: 9.89 ± 0.90 kg·h/L
  Cmax, norm: 4.11 ± 0.28 kg/L
  AUC(0-inf): 14800 ± 1340 ng·h/mL
  AUC(0-t): 14800 ± 1350 ng·h/mL
  C0: 6500 ± 490 ng/mL
  Cmax: 6160 ± 420 ng/mL
  clearance: 1.67 mL/min/kg
  half-life: 168 ± 16.2 min
  Vd: 0.32 ± 0.03 L/kg
[2]
  CC50 at 72 h: 127 nM

## CCn1nc(C)cc1C(=O)Nc1nc2cc(C(N)=O)cc(OC)c2n1C/C=C/Cn1c(NC(=O)c2cc(C)nn2CC)nc2cc(C(N)=O)cc(OC/C=C/CN3CCN(C(=O)OCc4ccc(O[C@@H]5O[C@H](C(=O)O)[C@@H](O)[C@H](O)[C@H]5O)c(C(=O)NCCOCCOCCO)c4)CC3=O)c21 [Compound 302]
hSTING-WT (R232)
  EC50: 46.7 nM
hSTING HAQ variant
  EC50: 83.5 nM
hSTING H232 variant
  EC50: 96.6 nM
Human STING
  EC50: 0.38 nM
[2]
  CC50 at 72 h: 59.2 nM
[3]
  CC50 at 72 h: 21.5 nM

## CCn1nc(C)cc1C(=O)Nc1nc2cc(C(N)=O)cc(OC)c2n1C/C=C/Cn1c(NC(=O)c2cc(C)nn2CC)nc2cc(C(N)=O)cc(OC/C=C/CN3CCN(C(=O)OCc4ccc(O[C@@H]5O[C@H](C(=O)O)[C@@H](O)[C@H](O)[C@H]5O)c(C(=O)NCCOCCOCCN(C)C)c4)CC3=O)c21 [Compound 309]
hSTING-WT (R232)
  EC50: 31.2 nM
hSTING HAQ variant
  EC50: 52 nM
hSTING H232 variant
  EC50: 70.4 nM
Human STING
  EC50: 0.4 nM
[2]
  CC50 at 72 h: 44.3 nM

## CCn1nc(C)cc1C(=O)Nc1nc2cc(C(N)=O)cc(OC/C=C/Cn3cc(NC(=O)OCc4ccc(O[C@@H]5O[C@H](C(=O)O)[C@@H](O)[C@H](O)[C@H]5O)c(C(=O)NCCOCCOCCO)c4)cn3)c2n1C/C=C/Cn1c(NC(=O)c2cc(C)nn2CC)nc2cc(C(N)=O)cc(OCCCC(=O)O)c21 [Compound 316]
hSTING-WT (R232)
  EC50: 88.2 nM
hSTING HAQ variant
  EC50: 400 nM
hSTING H232 variant
  EC50: 251 nM
[2]
  CC50 at 72 h: 207 nM

## CCn1nc(C)cc1C(=O)Nc1nc2cc(C(N)=O)cc(OC/C=C/Cn3cc(NC(=O)OCc4ccc(O[C@@H]5O[C@H](C(=O)O)[C@@H](O)[C@H](O)[C@H]5O)c(C(=O)NCCOCCOCCN(C)C)c4)cn3)c2n1C/C=C/Cn1c(NC(=O)c2cc(C)nn2CC)nc2cc(C(N)=O)cc(OC/C=C/Cn3cc(NC(=O)OCc4ccc(O[C@@H]5O[C@H](C(=O)O)[C@@H](O)[C@H](O)[C@H]5O)c(C(=O)NCCOCCOCCN(C)C)c4)cn3)c21 [Compound 359]
hSTING-WT (R232)
  EC50: 463 nM
Human STING
  EC50: 0.17 nM

## CCn1nc(C)cc1C(=O)Nc1nc2cc(C(N)=O)cc(NC/C=C/Cn3cc(N(CCC(=O)O)C(=O)OCc4ccc(O[C@@H]5O[C@H](C(=O)O)[C@@H](O)[C@H](O)[C@H]5O)c(C(=O)NCCOCCOCCN(C)C)c4)cn3)c2n1C/C=C/Cn1c(NC(=O)c2cc(C)nn2CC)nc2cc(C(N)=O)cc(OC)c21 [Compound 363]
hSTING-WT (R232)
  EC50: 403 nM
Human STING
  EC50: 0.8 nM
[3]
  CC50 at 72 h: 86.1 nM

## CCn1nc(C)cc1C(=O)Nc1nc2cc(C(N)=O)cc(OC/C=C/Cn3cc(NC(=O)OCc4ccc(O[C@@H]5O[C@H](C(=O)O)[C@@H](O)[C@H](O)[C@H]5O)c(C(=O)NCCOCCOCCO[C@@H]5O[C@H](C(=O)O)[C@@H](O)[C@H](O)[C@H]5O)c4)cn3)c2n1C/C=C/Cn1c(NC(=O)c2cc(C)nn2CC)nc2cc(C(N)=O)cc(OCCCC(=O)O)c21 [Compound 396]
hSTING-WT (R232)
  EC50: 240 nM
[3]
  CC50 at 72 h: 156 nM

## CCn1nc(C)cc1C(=O)Nc1nc2cc(C(N)=O)cc(OC)c2n1C/C=C/Cn1c(NC(=O)c2cc(C)nn2CC)nc2cc(C(N)=O)cc(OC/C=C/CN3CCCN3C(=O)OCc3ccc(O[C@@H]4O[C@H](C(=O)O)[C@@H](O)[C@H](O)[C@H]4O)c(C(=O)NCCOCCOCCO)c3)c21 [Compound 422]
hSTING-WT (R232)
  EC50: 45 nM
hSTING HAQ variant
  EC50: 477 nM
hSTING H232 variant
  EC50: 119 nM
Human STING
  EC50: 0.92 nM
[2]
  CC50 at 72 h: 207 nM
[3]
  CC50 at 72 h: 32.1 nM
